Reference: ChEMBL document CHEMBL5653626 (ChemMedChem, 2016)

Assays:
[1] = Clearance in rat hepatocytes; format: ADME, cell-based, Hepatocyte
[2] = Clearance in human liver microsomes; format: ADME, Microsome
[3] = Stability in human liver microsomes assessed as maximum bioavailability; format: ADME, Microsome; conditions: read-out: Fmax
[4] = Stability in mouse liver microsomes assessed as maximum bioavailability; format: ADME, Microsome; conditions: read-out: Fmax
[5] = target: T1, Solute carrier family 2, facilitated glucose transporter member 1 (Homo sapiens, UniProt P11166); assay: (§1) Inhibition of human GLUT1 expressed in human DLD-1 cells assessed as reduction in glucose uptake by measuring decrease in ATP production incubated for 15 mins in presence of oxidative phosphorylation inhibitor rotenone by CellTiter-Glo Luminescent Cell Viability Assay; format: cell-based
T1 sequence (P11166 whole entry): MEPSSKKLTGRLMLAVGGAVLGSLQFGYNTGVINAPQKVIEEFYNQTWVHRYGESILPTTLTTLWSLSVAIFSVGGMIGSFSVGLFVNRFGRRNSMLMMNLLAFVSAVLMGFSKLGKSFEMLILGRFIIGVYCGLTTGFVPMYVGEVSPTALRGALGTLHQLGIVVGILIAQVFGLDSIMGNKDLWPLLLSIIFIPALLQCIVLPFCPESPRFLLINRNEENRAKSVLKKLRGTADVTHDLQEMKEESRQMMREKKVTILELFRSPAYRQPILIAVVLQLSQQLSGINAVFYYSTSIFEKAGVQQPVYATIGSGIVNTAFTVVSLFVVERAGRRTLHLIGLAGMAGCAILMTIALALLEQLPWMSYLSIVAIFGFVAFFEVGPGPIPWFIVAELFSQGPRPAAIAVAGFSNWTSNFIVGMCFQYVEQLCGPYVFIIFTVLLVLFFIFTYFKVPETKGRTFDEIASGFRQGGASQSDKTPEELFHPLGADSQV

[6] = target: T2, Solute carrier family 2, facilitated glucose transporter member 4 (Homo sapiens, UniProt P14672); assay: as §1, with “GLUT4” for “GLUT1”, “CHO” for “human DLD-1”, “preincubated” for “incubated”, “for 20 mins followed by glucose addition and measured after” for “for”; format: cell-based
T2 sequence (P14672 whole entry): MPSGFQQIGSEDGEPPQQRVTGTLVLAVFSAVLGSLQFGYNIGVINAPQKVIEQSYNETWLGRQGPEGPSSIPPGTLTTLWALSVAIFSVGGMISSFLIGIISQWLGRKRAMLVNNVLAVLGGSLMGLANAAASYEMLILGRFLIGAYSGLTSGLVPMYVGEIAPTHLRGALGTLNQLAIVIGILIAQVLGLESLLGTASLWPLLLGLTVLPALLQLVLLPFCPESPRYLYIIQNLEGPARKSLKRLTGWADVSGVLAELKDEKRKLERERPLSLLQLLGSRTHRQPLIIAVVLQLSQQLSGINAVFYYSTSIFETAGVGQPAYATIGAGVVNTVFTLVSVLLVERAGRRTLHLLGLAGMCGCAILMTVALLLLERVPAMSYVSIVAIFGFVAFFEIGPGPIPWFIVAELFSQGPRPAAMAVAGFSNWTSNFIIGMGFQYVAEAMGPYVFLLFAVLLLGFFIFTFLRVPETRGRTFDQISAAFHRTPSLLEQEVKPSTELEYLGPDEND

[7] = Clearance in mouse liver microsomes; format: ADME, Microsome
[8] = target: T3, Solute carrier family 2, facilitated glucose transporter member 3 (Homo sapiens, UniProt P11169); assay: Inhibition of human GLUT3 expressed in human GLUT1-/- DLD-1 cells assessed as reduction in glucose uptake by measuring decrease in ATP production incubated for 15 mins in presence of oxidative phosphorylation inhibitor rotenone by CellTiter-Glo Luminescent Cell Viability Assay; format: cell-based
T3 sequence (P11169 whole entry): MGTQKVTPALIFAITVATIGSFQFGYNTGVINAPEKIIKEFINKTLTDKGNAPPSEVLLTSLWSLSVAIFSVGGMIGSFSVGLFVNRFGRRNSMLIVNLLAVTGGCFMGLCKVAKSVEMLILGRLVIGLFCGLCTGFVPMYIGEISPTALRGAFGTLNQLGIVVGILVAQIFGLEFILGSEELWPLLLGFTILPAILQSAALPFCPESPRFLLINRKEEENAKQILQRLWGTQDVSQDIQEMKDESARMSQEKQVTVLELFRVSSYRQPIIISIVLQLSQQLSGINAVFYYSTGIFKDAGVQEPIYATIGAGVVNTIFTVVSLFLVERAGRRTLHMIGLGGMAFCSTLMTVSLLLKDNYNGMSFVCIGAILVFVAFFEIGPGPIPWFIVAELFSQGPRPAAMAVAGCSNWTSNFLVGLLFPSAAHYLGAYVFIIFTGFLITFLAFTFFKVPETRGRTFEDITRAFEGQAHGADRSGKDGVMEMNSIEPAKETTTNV

[9] = target: T4, Solute carrier family 2, facilitated glucose transporter member 2 (Homo sapiens, UniProt P11168); assay: Inhibition of human GLUT2 expressed in CHO cells assessed as reduction in fructose uptake by measuring decrease in ATP production incubated for 15 mins in presence of oxidative phosphorylation inhibitor rotenone by CellTiter-Glo Luminescent Cell Viability Assay; format: cell-based
T4 sequence (P11168 whole entry): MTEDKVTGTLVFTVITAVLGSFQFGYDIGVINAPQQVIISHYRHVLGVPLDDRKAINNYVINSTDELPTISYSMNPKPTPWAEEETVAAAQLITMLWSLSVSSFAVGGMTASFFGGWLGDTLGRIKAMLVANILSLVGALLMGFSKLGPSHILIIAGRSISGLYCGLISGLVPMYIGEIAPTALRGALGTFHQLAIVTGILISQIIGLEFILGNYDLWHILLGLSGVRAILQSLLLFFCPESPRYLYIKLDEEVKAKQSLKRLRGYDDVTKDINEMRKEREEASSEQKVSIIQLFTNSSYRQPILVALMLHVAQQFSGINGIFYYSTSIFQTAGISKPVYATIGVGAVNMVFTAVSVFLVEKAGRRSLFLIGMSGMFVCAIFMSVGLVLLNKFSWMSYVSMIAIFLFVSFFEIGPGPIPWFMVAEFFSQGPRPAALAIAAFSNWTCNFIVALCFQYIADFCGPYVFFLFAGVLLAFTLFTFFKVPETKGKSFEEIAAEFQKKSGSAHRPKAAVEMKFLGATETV

[10] = Stability in rat hepatocytes assessed as maximum bioavailability; format: ADME, Hepatocyte; conditions: read-out: Fmax

| SMILES | IC50 [5] [nM] | IC50 [6] [nM] | other results |
| --- | --- | --- | --- |
| Cc1ccc2nc(C)cc(C(=O)Nc3c(C)nn(Cc4ccc(F)cc4)c3C)c2c1 | – | – | CLhep predicted [1]: 61.7 mL/min/kg; CLhep predicted [2]: 20 mL/min/kg; Fh [3]: 11%; Fh [4]: 25% |
| CCc1ccc(Cn2nc(C(F)(F)F)c(NC(=O)c3cc(C(N)=O)nc4cc(F)ccc34)c2C)cc1 | – | – | CLhep predicted [1]: 48.3 mL/min/kg; CLhep predicted [2]: 16.5 mL/min/kg |
| Cc1c(NC(=O)c2cc(C(N)=O)nc3cc(F)ccc23)c(C(F)(F)F)nn1Cc1ccccc1C#N | 3 | 88 | – |
| Cc1c(NC(=O)c2cc(C(=O)N3CC(O)C3)nc3cc(F)ccc23)c(C(F)(F)F)nn1Cc1ccc(C#N)cc1 | 340 | – | – |
| Cc1c(NC(=O)c2ccnc(C(N)=O)c2)c(C(F)(F)F)nn1Cc1ccc(C#N)cc1 | 200 | – | – |
| Cc1nn(Cc2ccc(F)cc2)c(C)c1NC(=O)c1cc(C(F)(F)F)nc2ccc(Br)cc12 | – | – | CLhep predicted [1]: 48.3 mL/min/kg; CLhep predicted [7]: 75 mL/min/kg |
| Cc1c(NC(=O)c2cc(C(N)=O)nc3cc(F)ccc23)c(C(F)(F)F)nn1Cc1ccc(OC(F)(F)F)cc1 | 5 | 370 | – |
| Cc1c(NC(=O)c2cc(C(N)=O)nc3ccc(F)cc23)c(C(F)(F)F)nn1Cc1ccc(C#N)cc1 | 5 | 44 | IC50 [8]: 290 nM |
| Cc1c(NC(=O)c2cc(-c3ncnn3C)nc3ccccc23)c(C(F)(F)F)nn1Cc1ccc(C#N)cc1 | – | – | CLhep predicted [1]: 31.7 mL/min/kg; CLhep predicted [7]: 35 mL/min/kg |
| COc1ccc2nc(C(N)=O)cc(C(=O)Nc3c(C(F)(F)F)nn(Cc4ccc(C#N)cc4)c3C)c2c1 | – | 13 | IC50 [8]: 110 nM |
| Cc1c(NC(=O)c2cc(C(=O)NCCN3CCOCC3)nc3cc(F)ccc23)c(C(F)(F)F)nn1Cc1ccc(C#N)cc1 | 340 | – | – |
| Cc1c(NC(=O)c2cc(C(N)=O)nc3cc(F)ccc23)c(C(F)(F)F)nn1Cc1ccc(C(C)(C)C)cc1 [BAY-588] | – | 500 | IC50 [9]: > 10000 nM |
| Cc1nn(Cc2ccc(C#N)cc2)c(C)c1NC(=O)c1cc(C(F)(F)F)nc2ccc(Br)cc12 | – | – | CLhep predicted [7]: 56.7 mL/min/kg |
| Cc1c(NC(=O)c2cc(C(N)=O)nc3cc(F)ccc23)c(C(C)C)nn1Cc1ccc(C#N)cc1 | 7 | – | CLhep predicted [2]: 14.5 mL/min/kg; Fh [3]: 34% |
| Cc1nn(Cc2ccc(C#N)cc2F)c(C)c1NC(=O)c1cc(C(F)(F)F)nc2ccc(Br)cc12 | 8 | 870 | – |
| Cc1c(NC(=O)c2cc(C(N)=O)nc3cc(F)ccc23)c(C(F)(F)F)nn1Cc1cccc(C#N)c1 | – | 950 | – |
| Cc1nn(CCc2ccc(F)cc2)c(C)c1NC(=O)c1cc(C(F)(F)F)nc2ccc(Br)cc12 | – | 340 | – |
| Cc1c(NC(=O)c2cc(C(N)=O)nc3cc(F)ccc23)c(C(F)(F)F)nn1Cc1ncc(C#N)cn1 | 26 | – | CLhep predicted [1]: 14.8 mL/min/kg; CLhep predicted [2]: 3.67 mL/min/kg; Fh [3]: 83%; Fh [10]: 79% |
| Cc1c(NC(=O)c2cc(C(N)=O)nc3cc(F)c(F)cc23)c(C(F)(F)F)nn1Cc1ccc(C#N)cc1 | 2 | 180 | – |
| Cc1c(NC(=O)c2cc(C(N)=O)nc3cc(F)cc(F)c23)c(C(F)(F)F)nn1Cc1ccc(C#N)cc1 | 1 | 16 | IC50 [8]: 470 nM |

| SMILES | IC50 [5] [nM] | IC50 [6] [nM] | other results |
| --- | --- | --- | --- |
| Cc1cccc2nc(C(N)=O)cc(C(=O)Nc3c(C(F)(F)F)nn(Cc4ccc(C#N)cc4)c3C)c12 | 18 | 17 | IC50 [8]: 86 nM |
| Cc1c(NC(=O)c2cc(C(N)=O)nc3scnc23)c(C(F)(F)F)nn1Cc1ccc(C#N)cc1 | 35 | 280 | – |
| Cc1c(NC(=O)c2cc(-c3cccnc3)nc3ccccc23)c(C(F)(F)F)nn1Cc1ccc(C#N)cc1 | 74 | – | – |
| Cc1nc(C)c(-c2cc(C(=O)Nc3c(C(F)(F)F)nn(Cc4ccc(C#N)cc4)c3C)c3ccccc3n2)s1 | 760 | 910 | – |
| Cc1nn(-c2ccc(F)cc2)c(C)c1NC(=O)c1cc(C(F)(F)F)nc2ccc(Br)cc12 | 470 | – | – |
| Cc1c(NC(=O)c2cc(-c3ccc(F)cc3)nc3ccccc23)c(C(F)(F)F)nn1Cc1ccc(C#N)cc1 | 920 | – | – |
| Cc1c(NC(=O)c2cc(C(N)=O)nc3cc(F)ccc23)c(C(F)(F)F)nn1Cc1ccc(C(F)(F)F)cc1 | 9 | 910 | – |
| Cc1ccccc1Cn1nc(C(F)(F)F)c(NC(=O)c2cc(C(N)=O)nc3cc(F)ccc23)c1C | 7 | – | – |
| Cc1nn(Cc2ccc(F)cc2)c(C)c1N | 960 | – | – |
| Cc1c(NC(=O)c2cc(C(N)=O)nc3cc(F)ccc23)c(C(F)(F)F)nn1Cc1cnc(C#N)cn1 | 5 | 16 | CLhep predicted [1]: 20 mL/min/kg; CLhep predicted [2]: 8.83 mL/min/kg; Fh [3]: 60%; Fh [10]: 72% |
| Cc1cccc(Cn2nc(C(F)(F)F)c(NC(=O)c3cc(C(N)=O)nc4cc(F)ccc34)c2C)c1 | 11 | 610 | – |
| Cc1nn(Cc2ccc(C#N)cc2)c(C)c1NC(=O)c1cc(C(N)=O)nc2cc(F)ccc12 | – | – | CLhep predicted [1]: 16.7 mL/min/kg; CLhep predicted [2]: 7.5 mL/min/kg; CLhep predicted [7]: 11.2 mL/min/kg |
| Cc1cc(C)c2nc(-c3ccco3)cc(C(=O)Nc3c(C)nn(Cc4ccc(F)cc4)c3C)c2c1 | – | – | CLhep predicted [1]: 63.3 mL/min/kg |
| Cc1nn(CC2CCOCC2)c(C)c1NC(=O)c1cc(C(F)(F)F)nc2ccc(Br)cc12 | – | – | IC50 [9]: 8500 nM |
| Cc1c(NC(=O)c2cc(C(N)=O)nc3cccc(F)c23)c(C(F)(F)F)nn1Cc1ccc(C#N)cc1 | 3 | 94 | IC50 [8]: 230 nM |
| Cc1c(NC(=O)c2cc(C(N)=O)nc3ncccc23)c(C(F)(F)F)nn1Cc1ccc(C#N)cc1 | 45 | 1000 | IC50 [8]: 300 nM |
| C=C1[C@@H](C)[C@H]2[C@H](Cc3ccccc3)NC(=O)[C@]23OC(=O)/C=C/[C@H](O)CCC[C@@H](C)C/C=C/[C@H]3[C@@H]1O [CYTOCHALASIN B] | – | – | IC50 [9]: 2800 nM |
| Cc1ccc2nc(C(N)=O)cc(C(=O)Nc3c(C(F)(F)F)nn(Cc4ccc(C#N)cc4)c3C)c2c1 | – | 120 | CLhep predicted [1]: 33.3 mL/min/kg; CLhep predicted [7]: 38.3 mL/min/kg; Fh [10]: 53%; Fh [4]: 57% |
| Cc1nn(Cc2ccc(C#N)cn2)c(C)c1NC(=O)c1cc(C(F)(F)F)nc2ccc(Br)cc12 | 2 | – | – |
| Cc1c(NC(=O)c2cc(C(N)=O)nc3cnccc23)c(C(F)(F)F)nn1Cc1ccc(C#N)cc1 | 10 | 61 | – |
